Source: patent US11351144B2, “Compounds for inhibiting secretory leukocyte protease inhibitor (SLPI)” (The General Hospital Corporation, priority 2017, dated 2022)
Entries after “also recorded” stand apart in the source; their conditions may differ.

B1: recombinant SLPI protein: recombinant secretory leukocyte protease inhibitor protein added to cells at 1.5 μg/mL (protein, UniProt P03973 26-132, looked up)
Antileukoproteinase: SGKSFKAGVCPPKKSAQCLRYKKPECQSDWQCPGKKRCCPDTCGIKCLDPVDTPNPTRRKPGKCPVTYGQCLMLNPPNFCEMDGQCKRDLKCCMGMCGKSCVSPVKA

Columns and labels:
MDA-MB-468 cancer cells = test: MTT cell viability assay, MDA-MB-468; type: cell-based, human; details: MDA-MB-468 cells, 24 hours
4T1 TNBC = test: Orthotopic 4T1 TNBC tumor growth and spontaneous lung metastases in BALB/c mice; type: in vivo
Experimental: Next, we tested whether treatment with the selected SLPI inhibitor C74 would decrease metastasis in vivo. Parental and modified 4T1 cells were injected into the third mammary fat pad of 8-week-old female BALB/C mice, 10^5 cells in 20 μL of HANKS per injection. The growing tumors were then either resected at a certain size or left as is. In the latter case, the mice were treated daily with intraperitoneal (i.p.) delivery of 20 mg/kg of the selected compound suppressing SLPI (or vehicle), for 12 consecutive days starting from day 6 after tumor implantation, when tumors were ˜3.8 mm in diameter on average (see FIG. 3D). The mice were sacrificed either on day 21 post primary tumor resection or 17 days after compound treatment initiation. The lungs were removed and placed in Bouin's solution (Sigma). A few days later, the lung surface was examined under a stereomicroscope and the number and size of metastases were evaluated.

[1] = test system: SLPI expression (luciferase plasmid driven by the SLPI promoter); test: High-throughput screening: luciferase reporter driven by the SLPI promoter in MDA-MB-468 cells; type: cell-based, human; details: 0.31 to 5 μM (five concentrations), 24 hours
Text: Human triple-negative MDA-MB-231, LS174T, HEK293T and MCF-7 and MDA-MB 468 cell lines were obtained from the ATCC collection. MDA-MB-468 cells stably expressing luciferase plasmid driven by the SLPI promoter were used for high-throughput screening. To generate SLPI overexpressing cells, cancer cells were infected with pBabe-SLPI retroviruses containing the LTR promoter and puromycin resistant genes. The SLPI knockdown 4T1 cell line was established by lentiviral infection of 4T1 cells. Lentiviral particles were produced by transfecting 293T cells with two different shRNA clones that targeted SLPI (MISSION shRNA Sigma) and viral packages (VSVG,psPAX2) using FuGENE reagent (Promega, US). SLPI down-regulation was confirmed by using both q-PCR and ELISA.
After establishing that SLPI is a valid target for inhibiting TNBC metastasis, small molecules for use in inhibiting SLPI pharmacologically were screened. Human TNBC cell line MDA-MB-468 with a Luciferase plasmid driven by the SLPI promoter was used to perform high-throughput screening of a small-molecule library of 60,000 chemically-diverse compounds. Compounds (5 μM) were diluted in 100% DMSO, and spotted per well to 384-well plates using a Multimek 96/384 Channel Automated Pipetter. A cell-based readout system was used for compound selection. […] Selected compounds were also analyzed with 90% of SLPI repression. […]

[2] = test system: retinoblastoma (Rb) tumor suppressor protein phosphorylation; test: Western blot of Rb phosphorylation in MDA-MB-231 and MCF7 cells; type: cell-based, human
Experimental: Lysates from 293T, MDA-MB-231, MCF7 and 4T1 cells were prepared in lysis buffer containing Tris-HCl 50 mM/pH 7.4; NaCl 150 mM; NP-40 1%; SDS 0.1%; Na-deoxycholate 0.5%; EDTA 1 mM; plus 1% phosphatase inhibitor cocktails I and II (Sigma-Aldrich, US), and 1% protease inhibitor cocktail (Roche). Equal amounts of protein (50 μg/sample) were resolved by SDS-PAGE, transferred onto nitrocellulose membranes, and immunoblotted using the following primary antibodies: anti-SLPI, anti-RB (Cell Signaling and Santa Cruz Biotechnology, US), anti-SOD2, Aurora kinase, cyclin B1 and anti-β-catenin (Cell Signaling Technology). For co-IP assays, lysates were pre-cleared with IgG, and incubated with anti-SLPI, anti-RB or control IgG antibodies linked to Sepharose-A beads. Protein complexes were dissociated from beads and separated by SDS-PAGE. Immunodetection was performed by incubation with HRP-conjugated species-specific antibodies, followed by chemiluminescence detection (Perkin Elmer, US).

[3] = test system: normal human umbilical vein endothelial cells (HUVEC); test: MTT cell viability assay, HUVEC; type: cell-based; details: 24 hours
4T1 cancer cells = test: MTT cell viability assay, 4T1; type: cell-based, murine; details: 4T1 cells, 24 hours
[4] = test system: FoxM1 binding to the MMP2 promoter; test: Electrophoretic mobility shift assay, FoxM1 binding to MMP2 promoter probe; type: cell-based, human; details: protein extracts from treated MDA-MB-231 cells versus untreated cells
Experimental: To directly test the ability of SLPI to modify FoxM1 binding to another target gene, MMP2, we used the electrophoretic mobility shift assay. Electrophoretic mobility shift assays (EMSAs) were performed following manufacture protocol using kit from Thermo Fisher. Double-stranded oligonucleotides from MMP2 promoter with FoxM1 binding site were used: 5′-[…]-3′ (SEQ ID NO: 1). End-labelled DNA was detected using streptavidin-conjugated horseradish peroxidase. For the supershift assay, antibody against FoxM1 (Cell Signaling) was added to the binding reaction for 1 hour on ice.
The MMP2 promoter sequence comprising the FoxM1-binding site (−662 to −671 bp) was biotin-labeled and used as a probe for the protein binding gene promoter region (see e.g., Dai et al, Oncogene, 2007, 26:6212-6219). The probe was incubated with protein extracts from SLPI-treated MDA-MB-231 cells and untreated cells. […] The binding of this protein to the probe was sequence-specific, as it was blocked by competition with an unlabeled FoxM1 oligomer. To confirm that FoxM1 bound to MMP2 promoter in the presence of SLPI, a supershift assay was performed by adding FoxM1-binding antibody to that protein-DNA complex. The enhanced probe retardation is shown in lane 5 in FIG. 6A.

Rb-FoxM1 interaction = test: Mammalian two-hybrid system, GAL4-Rb and VP16-FoxM1 in HEK293T cells; type: cell-based, human; details: 1.5 μg/mL added to cell media, time course
Text: For further verification of this interaction, a standard mammalian two-hybrid approach was used. The two genes encoding two of the three potentially interactive proteins of interest (Rb, SLPI and FoxM1) were cloned into pBIND and pACT vectors to generate fusion proteins with the DNA-binding domain of GAL4 and the activation domain of VP16. HEK293T cells were transiently transfected with a pG5luc luciferase reporter plasmid, pGAL4 and pVP16 fusion constructs. After two days, the transfected cells were lysed and the levels of luciferase were quantitated. Interaction between the two test proteins results in an increase in luciferase expression over the negative controls that included pBIND and pACT vectors. The pairs of fusion proteins GAL4-Rb plus VP16-SLPI induced activation of the reporter construct about 7 times more than the negative controls, as shown in FIG. 4C.

[5] = 20 mg/kg i.p. daily for 12 days, lungs evaluated on day 23

| changes in mouse weight, appearance, or behavior (4T1 TNBC; 20 mg/kg i.p. daily for 12 days) | Molecule | toxic effect (cell viability, MTT assay) (MDA-MB-468 cancer cells) | decrease of total number of lung metastases (4T1 TNBC; [5]) [%] | size of lung metastatic colonies (4T1 TNBC; [5]) | primary tumor growth (tumor diameter) (4T1 TNBC; 4T1 in mammary fat pad, 20 mg/kg i.p. daily for 12 days from day 6, 20 mg/kg) | SLPI expression quantified using luciferase activity driven by the SLPI promoter [1] | Rb phosphorylation (phospho-Rb Western blot) ([2]; 1 μM for 16 h) | toxic effect (cell viability, MTT assay) [3] | toxic effect (cell viability, MTT assay) (4T1 cancer cells) | binding activity of FoxM1 to MMP2 promoter probe [4] | Rb phosphorylation (phospho-Rb Western blot) ([2]; recombinant protein 1.5 μg/mL, as early as 1-2 h post treatment) | reporter construct activation (Rb-FoxM1 binding) (Rb-FoxM1 interaction) |
| --- | --- | --- | --- | --- | --- | --- | --- | --- | --- | --- | --- | --- |
| did not cause changes | CCCOC(=O)c1cccc(NC(=O)COc2ccccc2Cl)c1 [Compound C74, propyl 3-(2-(2-chlorophenoxy)acetamido)benzoate] | no toxic effect | 50 | much smaller | suppressed tumor growth and metastasis; also recorded: small, progressive inhibition of primary tumor growth | inhibition of SLPI expression; also recorded: Dose dependence of SLPI repression was confirmed | repressed Rb phosphorylation; also recorded: decreased phosphorylation of Rb | no toxic effect | no toxic effect |  |  |  |
|  | B1 |  |  |  |  |  |  |  |  | substantial increase in binding activity of FoxM1 | increased phosphorylation of Rb | progressive decrease of reporter construct activation |
